SMILES strings stand for the structures.

For this assay, the system named is MOLT-4 cells. The assay is described as follows: CTG (CellTiter-Glo) cell viability assay, MOLT-4. The assay is classed as cell-based. The conditions noted are these: Homo sapiens, MOLT-4, 72 h, 3 day incubation, read-out: CTG Cell Viability Assay - MOLT-4 3 day: Average external-IC50. On the procedure:
Compound-mediated viability effect on MOLT-4 and Caki-2 was quantitatively determined using the CellTiter-Glo® Luminescent Cell Viability Assay kit from Promega (Catalog number G7570) following manufacturer's recommended procedures. Briefly, MOLT-4 and Caki-2 cells were seeded into 384 well plates (Grenier Bio-One, Catalog number 781080) with a density of 10,000 cells per well. Compounds were then added to the assay plate with final top concentration of 10 μM and 1:3 dilution series with total of 9 doses. The final DMSO concentration is normalized to 0.2%. The assay plates were incubated at 37° C., for 3 days under 5% CO2. Then the assay plate was equilibrated at room temperature for 10 minutes. To determine cell viability, 30 uL CellTiter Glo reagent was added to each well and the assay plate was centrifuged at 1000 rpm for 30 second, incubated at room temperature for 10 min, and analyzed by detecting the luminescence using a multimode plate reader (EnVision 2105, PerkinElmer). The data was then analyzed by software Prism 7.0 from GraphPad and the dose response curves are fit using a three-parameter logistic equation to calculate IC50.
The letter codes for MOLT-4 IC50 include: A (<0.1 μM); B (0.1-1.0 μM); C (>1.0-3.0 μM); and D (>3.0 μM). The letter codes for Caki-2 IC50 include: A (<0.1 μM); B (0.1-1.0 μM); C (>1.0-10.0 μM); and D (>10.0 μM).
On to `Cc1cc(N(CCCC(=O)N(C)CCOCC(=O)N[C@H](C(=O)N2C[C@H](O)C[C@H]2C(=O)N[C@@H](C)c2ccc(-c3scnc3C)cc2)C(C)(C)C)c2ccc(-c3cnn(CC4CCCCC4)c3C)c(C(=O)O)n2)nnc1Nc1nc2ccccc2s1` [I-156], for which the IC50 is greater than 3 µM.
As to `Cc1ncsc1-c1ccc(CNC(=O)[C@@H]2C[C@@H](O)CN2C(=O)[C@@H](NC(=O)C2(F)CC2)C(C)(C)C)c(OCC(C)N2CCN(CC[C@H](CSc3ccccc3)Nc3ccc(S(=O)(=O)NC(=O)c4ccc(N5CCN(CC6=C(c7ccc(Cl)cc7)CCC(C)(C)C6)CC5)cc4)cc3S(=O)(=O)C(F)(F)F)CC2)c1` (stereo partly drawn) [I-155], the IC50 is less than 0.1 µM.
As to `Cc1cc(N(CCCC(=O)N(C)CCCCOCC(=O)N[C@H](C(=O)N2C[C@H](O)C[C@H]2C(=O)N[C@@H](C)c2ccc(-c3scnc3C)cc2)C(C)(C)C)c2ccc(-c3cnn(CC4CCCCC4)c3C)c(C(=O)O)n2)nnc1Nc1nc2ccccc2s1` [I-157], the IC50 was greater than 3 µM.
Under `Cc1ncsc1-c1ccc([C@H](C)NC(=O)[C@@H]2C[C@@H](O)CC2C(=O)[C@@H](NC(=O)CCCC(=O)N2CCN(C(=O)COC3(Cn4cc(-c5ccc(N6CCc7cccc(C(=O)Nc8nc9ccccc9s8)c7C6)nc5C(=O)O)cn4)CCCCC3)CC2)C(C)(C)C)cc1` (stereo partly drawn) [I-149] stands greater than 3 µM; under `Cc1ncsc1-c1ccc([C@H](C)NC(=O)[C@@H]2C[C@@H](O)CN2C(=O)[C@@H](NC(=O)CCCCCC(=O)N2CCN(CC[C@H](CSc3ccccc3)Nc3ccc(S(=O)(=O)NC(=O)c4cccc(N5CCc6cccc(C(=O)Nc7nc8ccccc8s7)c6C5)n4)cc3S(=O)(=O)C(F)(F)F)CC2)C(C)(C)C)cc1` [I-160], greater than 3 µM.
Under `Cc1ncsc1-c1ccc([C@@H](C)NC(=O)[C@@H]2C[C@@H](O)CN2C(=O)[C@@H](NC(=O)CCCCCC(=O)N(C)CCCC2(Cn3ncc(-c4ccc(N5CCc6cccc(C(=O)Nc7nc8ccccc8s7)c6C5)nc4C(=O)O)c3C)CCCCC2)C(C)(C)C)cc1` [I-162] stands 0.1 to 1 µM; under `Cc1ncsc1-c1ccc([C@@H](CC(=O)N(C)CCCCCC(=O)N2CCN(CC[C@H](CSc3ccccc3)Nc3ccc(S(=O)(=O)NC(=O)c4ccc(N5CCN(CC6=C(c7ccc(Cl)cc7)CCC(C)(C)C6)CC5)cc4)cc3S(=O)(=O)C(F)(F)F)CC2)NC(=O)[C@@H]2C[C@@H](O)CN2C(=O)[C@@H](NC(=O)C2(F)CC2)C(C)(C)C)cc1` [I-159], 0.1 to 1 µM; under `Cc1ncsc1-c1ccc([C@H](CC(=O)N(C)CCCCCC(=O)N2CCN(CC[C@H](CSc3ccccc3)Nc3ccc(S(=O)(=O)NC(=O)c4ccc(N5CCN(CC6=C(c7ccc(Cl)cc7)CCC(C)(C)C6)CC5)cc4)cc3S(=O)(=O)C(F)(F)F)CC2)NC(=O)[C@@H]2C[C@@H](O)CN2C(=O)[C@@H](NC(=O)C2(F)CC2)C(C)(C)C)cc1` [I-147], 1 to 3 µM.
Take `Cc1ncsc1-c1ccc([C@H](C)NC(=O)[C@@H]2C[C@@H](O)CN2C(=O)[C@@H](NC(=O)CCCCCCCCC(=O)N(C)CC#Cc2ccc(OCCCc3ccc(N4CCc5cccc(C(=O)Nc6nc7ccccc7s6)c5C4)nc3C(=O)O)c(F)c2)C(C)(C)C)cc1` [I-148]: the IC50 is less than 0.1 µM.
As for `Cc1ncsc1-c1ccc(CNC(=O)[C@@H]2C[C@@H](O)CN2C(=O)[C@@H](NC(=O)C2(F)CC2)C(C)(C)C)c(OCC(=O)N(C)CC[C@H](CSc2ccccc2)Nc2ccc(S(=O)(=O)NC(=O)c3ccc(N4CCN(CC5=C(c6ccc(Cl)cc6)CCC(C)(C)C5)CC4)cc3)cc2S(=O)(=O)C(F)(F)F)c1` [I-161], the concentration for half-maximal inhibition (IC50) was greater than 3 µM.
Under `Cc1ncsc1-c1ccc(CNC(=O)[C@@H]2C[C@@H](O)CN2C(=O)[C@@H](NC(=O)C2(F)CC2)C(C)(C)C)c(OCCCC(=O)N(C)CC[C@H](CSc2ccccc2)Nc2ccc(S(=O)(=O)NC(=O)c3ccc(N4CCN(CC5=C(c6ccc(Cl)cc6)CCC(C)(C)C5)CC4)cc3)cc2S(=O)(=O)C(F)(F)F)c1` [I-146] stands 0.1 to 1 µM; under `Cc1ncsc1-c1ccc([C@H](C)NC(=O)[C@@H]2C[C@@H](O)CN2C(=O)[C@@H](NC(=O)COC2CCN(CCNC(=O)c3nc(N4CCc5cccc(C(=O)Nc6nc7ccccc7s6)c5C4)ccc3-c3cnn(CC4CCCCC4)c3C)CC2)C(C)(C)C)cc1` [I-163], 0.1 to 1 µM; under `Cc1ncsc1-c1ccc([C@H](C)NC(=O)[C@@H]2C[C@@H](O)CN2C(=O)[C@@H](NC(=O)N2CC(CN3CCC(CNC(=O)c4nc(N5CCc6cccc(C(=O)Nc7nc8ccccc8s7)c6C5)ccc4-c4cnn(CC5CCCCC5)c4C)CC3)C2)C(C)(C)C)cc1` [I-153], 1 to 3 µM.
Under `Cc1ncsc1-c1ccc([C@H](C)NC(=O)[C@@H]2C[C@@H](O)CN2C(=O)[C@@H](NC(=O)CCCC(=O)N(C)CCCC2(Cn3ncc(-c4ccc(N5CCc6cccc(C(=O)Nc7nc8ccccc8s7)c6C5)nc4C(=O)O)c3C)CCCCC2)C(C)(C)C)cc1` [I-150] stands 0.1 to 1 µM.
Regarding `Cc1ncsc1-c1ccc([C@H](C)NC(=O)[C@@H]2C[C@@H](O)CN2C(=O)[C@@H](NC(=O)C2(F)CC2)C(C)(C)C)c(OCCN2CCN(CC[C@H](CSc3ccccc3)Nc3ccc(S(=O)(=O)NC(=O)c4ccc(N5CCN(CC6=C(c7ccc(Cl)cc7)CCC(C)(C)C6)CC5)cc4)cc3S(=O)(=O)C(F)(F)F)CC2)c1` [I-154], the IC50 was 1 to 3 µM.
Under `Cc1ncsc1-c1ccc([C@H](C)NC(=O)[C@@H]2C[C@@H](O)CN2C(=O)[C@@H](NC(=O)CN2CCN(CCNC(=O)c3nc(N4CCc5cccc(C(=O)Nc6nc7ccccc7s6)c5C4)ccc3-c3cnn(CC4CCCCC4)c3C)CC2)C(C)(C)C)cc1` [I-164] stands 0.1 to 1 µM; under `Cc1ncsc1-c1ccc([C@H](C)NC(=O)[C@@H]2C[C@@H](O)CN2C(=O)[C@@H](NC(=O)COCCN2CCC(NC(=O)c3nc(N4CCc5cccc(C(=O)Nc6nc7ccccc7s6)c5C4)ccc3-c3cnn(CC4CCCCC4)c3C)CC2)C(C)(C)C)cc1` [I-152], 1 to 3 µM; under `Cc1ncsc1-c1ccc(CNC(=O)[C@@H]2C[C@@H](O)CN2C(=O)[C@@H](NC(=O)C2(F)CC2)C(C)(C)C)c(OCCN2CCN(CC[C@H](CSc3ccccc3)Nc3ccc(S(=O)(=O)NC(=O)c4csc(N5CCc6cccc(C(=O)Nc7nc8ccccc8s7)c6C5)n4)cc3S(=O)(=O)C(F)(F)F)CC2)c1` [I-167], 0.1 to 1 µM.
Consider `Cc1ncsc1-c1ccc(CNC(=O)[C@@H]2C[C@@H](O)CN2C(=O)[C@@H](NC(=O)C2(F)CC2)C(C)(C)C)c(OCCCCC(=O)N2CCN(CCCC3(Cn4ncc(-c5ccc(N6CCc7cccc(C(=O)Nc8nc9ccccc9s8)c7C6)nc5C(=O)O)c4C)CCCCC3)CC2)c1` [I-169], for which the IC50 lay within 0.1 to 1 µM.
As to `Cc1ncsc1-c1ccc([C@H](C)NC(=O)[C@@H]2C[C@@H](O)CN2C(=O)[C@H](NC(=O)CCCCCCCS(=O)(=O)NC(=O)c2nc(N3CCc4cccc(C(=O)Nc5nc6ccccc6s5)c4C3)ccc2-c2cnn(CC3CCOCC3)c2C)C(C)(C)C)cc1` [I-166], the IC50 fell in the range of 0.1 to 1 µM.
With `Cc1ncsc1-c1ccc([C@H](C)NC(=O)[C@@H]2C[C@@H](O)CN2C(=O)C(c2cc(N3CC4(CCN(CCNC(=O)c5nc(N6CCc7cccc(C(=O)Nc8nc9ccccc9s8)c7C6)ccc5-c5cnn(CC6CCCCC6)c5C)CC4)C3)no2)C(C)C)cc1` (stereo partly drawn) [I-165], the IC50 was in the range of 0.1 to 1 µM.

The values are drawn from patent US20250197387A1, “BCL-XL DEGRADERS AND USES THEREOF” (Kymera Therapeutics, Inc., priority 2021, published 2025).
